What was measured:
[1] = system: FGL-induced neurite outgrowth in CGN cultures; experiment: Effect of inhibitors of FGFR, MEK and PI3K on FGL-induced neurite outgrowth in CGN; assay type: cell-based, rat; settings: for FGLd-induced neurite outgrowth in CGN in presence of inhibitor: FGLd-treated control = 100%
Procedure: CGN cultures were grown for 24 hours at a density of 10,000 cells/cm^2 on 8-well permanox slides in the presence of the FGL peptide and an inhibitor. PD98059 ([…]) was added at concentrations of 12.5, 25 and 50 μM simultaneously with 10 μg/ml FGLd; LY294002 (▴) was added at concentrations of 3.5, 7 and 10 μM simultaneously with 27 μg/ml FGLd. SU5402 (▪) was added in concentrations of 20, 40 and 80 μM simultaneously with 27 μg/ml FGLd. After the treatment cells were fixed and immunostained for GAP-43. Results from at least four independent experiments are shown as percentage ±SEM, with FGLd-treated control cultures set at 100%. The dashed line indicates the average neurite length in cultures without FGLd-treatment. *p<0.05, **p<0.01 when compared to the FGLd-treated controls.
(§1) Peptide solutions without or with inhibitors of various signal transduction pathways were added to a total volume of 300 μl/cm^2, and the slides were incubated at 37° C. After 24 hours, the neurons were fixed with 4% (v/v) formaldehyde for 20 minutes and thereafter immunostained using primary rabbit antibodies against GAP-43 and Alexa Fluor secondary goat anti-rabbit antibodies. Images of at least 200 neurons for each group in each individual experiment were obtained systematically by using computer assisted fluorescence microscopy as previously described (Rønn et al., 2000 op. cit.). Briefly, a Nikon Diaphot inverted microscope with a Nikon Plan 20× objective (Nikon, Tokyo, Japan) coupled to a video camera (Grundig Electronics, Germany) was used for recordings. The same software package as described above for the dopaminergic neurite outgrowth assay was used to process the recorded images.

[2] = system: FGL-induced survival of CGN; experiment: Effect of inhibitors of FGFR, MEK and PI3K on FGL-induced survival of CGN; assay type: cell-based, rat; settings: 10 μg/ml FGLd, low KCl
Procedure: Thereafter the MEK inhibitor PD98059 ([…]), PI3K inhibitor LY294002 (▴) and FGFR inhibitor SU5402 (▪) were added at various concentrations. The addition of the inhibitors followed in all cases by the addition of 10 μg/ml FGLd. […] Results from at least four individual experiments are shown as percentage of the number of live neurons relative to the total number of neurons ±SEM, with control cultures treated with FGLd set at 100%.

[3] = system: FGL-induced neurite outgrowth in CGN cultures; settings: previously found; cited from earlier work
[4] = system: organotypic hippocampal neuronal slice cultures (OHSC); experiment: OGD, propidium iodide staining of OHSC; assay type: cell-based, rat; settings: inhibitor together with FGLd
Excerpt: (§2) In the present study it was investigated the effect of the FGL peptide on synaptic plasticity, neuronal function and vulnerability following oxygen and glucose deprivation (OGD) in organotypic hippocampal neuronal slice cultures (OHSC) from 7-day-old Wistar rats according to method of Stoppini et al. (1991) Neurosci Methods. 37:173-82 and primary cultures of dissociated hippocampal neurons from 1-day-old rats according to method of Maar et al. (1997) J Neurosci Res. 47:163-72. Primary cell cultures were maintained for 11-12 days and OHSC for 12-14 days prior to adding FGLd.
(§3) The primary cell cultures and OHSC were exposed to OGD for 10 and 20 minutes. Following OGD, the cultures were again supplied with oxygen and glucose and analysed at 1, 4 or 24 hour time point after introduction of OGD exposure. FGLd (or the control peptide FGLc) was added 24 hr before, immediately, or 1 hr or 24 hr after OGD. When administered prior to OGD, FGLd was removed from the medium when introducing OGD. In some cases, the slice cultures were treated with FGLd only at 4 hr after OGD. In addition, the FGFR inhibitor, SU5402 (25 μM), was added together with FGLd in some of the set-ups.
(§4) In hippocampal neuronal cultures, FM 1-43 staining was used to evaluate pre-synaptic function (described above). Cell viability in both primary cell cultures and OHSC was measured using the […] [3-(4,5-dimethylthiazol-2-yl)-2,5-diphenyltetrazolium bromide] assay according to Malich et al, (1997) Toxicology. 124:179-92. In, addition, cell viability in OHSC was measured using propidium iodide (PI) staining according to Laake et al. (1999) Brain Res Brain Res Protoc. 4:173-84.

[5] = system: dissociated hippocampal neurons; experiment: OGD, metabolic activity (MTS) in dissociated hippocampal cell cultures; assay type: cell-based, rat; settings: inhibitor 25 μM together with FGLd for 24 hours before OGD
Excerpt: as §2, §3, §4

[6] = system: dissociated hippocampal neurons; experiment: OGD, FM 1-43 release in dissociated hippocampal cell cultures; assay type: cell-based, rat; settings: together with FGLd
Excerpt: as §2, §3, §4

hippocampal neurons [7] = experiment: FM 1-43 destaining (presynaptic vesicle turnover) in hippocampal neurons; assay type: cell-based, rat; settings: added simultaneously with FGLd
Procedure: The values were compared using an unpaired t-test. *p=0.04 (1 h) and **p=0.0032 (48 h). FGLcontrol is a control peptide consisting the sequence […] (SEQ ID NO: 147).
The effects of FGLd on vesicle turnover was estimated in primary cultures of hippocampal neurons from embryonic rats (E19). The cultures were prepared as above. Following 13-16 days in vitro, FGLd was added to the cultures and incubated for 1, 24 or 48 hours. After 48 hours of incubation, the FGFR-inhibitor (SU 5402) was added simultaneously with FGLd to some of the cultures.
After treatment with FGLd the neurons were labeled with the fluorescent membrane probe FM 1-43 as described by Kiryushko et al (2003) J Biol. Chem. 278:12325-34. The rate of FM 1-43 release (destaining of cells) evoked by depolarisation with 90 mM potassium was then evaluated by a time-lapse image acquisition using the Radiance 2000 scanning system and a Nikon eclipse TE200 confocal microscopy.

hippocampal neurons [8] = experiment: Neurite outgrowth, hippocampal neurons; assay type: cell-based, rat
Procedure: The cultures were subsequently immunostained for tyrosine hydroxylase. Hippocampal neurons and CGN were plated at a density of 10,000 cells/cm^2 on 8-well permanox chamber slides and incubated for 24 hours in the presence of various concentrations of FGLd. Subsequently the neurons were immunostained for GAP-43. Results from at least five independent experiments for each neuronal culture are shown as percentage ±SEM with the untreated controls set at 100%. *p<0.05, **p<0.01, ***p<0.001 when compared to the controls.
Results from at least four independent experiments are shown as percentage SEM with untreated controls set at 100%. **p<0.01 when compared to the controls.
as §1

rat FGFR1 (IIIC isoform) = target: T1, rat FGFR1 (IIIC isoform) (Rattus norvegicus, UniProt Q04589); experiment: Phosphorylation of FGFR1 in transfected HEK293 cells; assay type: cell-based; settings: 20 μg/ml; 20 min; HEK293 cells transfected with rat FGFR1
T1 construct: expressed in transfected cells; host or cells: HEK293 cells, transiently transfected with a pcDNA3.1(+) plasmid (Invitrogen)
Procedure: The EFL peptide is derived from the Fn 3, 2 module of NCAM and represents the E strand-loop-G strand part of the module. For the experiments the peptide was synthesised as described above. […] The peptide is also capable to bind and stimulate FGFR1 in cells expressing the receptor, wherein the peptide induces the receptor phosphorylation (at concentration 20 μg/ml by more then 300%). Phosphorylation of FGFR1 was studied using the following assay. […] Cells were grown for another 24 hrs in full medium, and then shifted to starvation media (DMEM 1965) overnight. FGFR transfected cells were stimulated for 20 min with the EFL monomer, lysed in 8M urea, 1 mM orthovanadate (in PBS) and purified from the lysate via the His-tag as follows: The lysate was loaded on Ni^2+/NTA-sepharose (Qiagen), washed with lysis buffer plus 10 mM imidazole, and the FGFR was eluted with lysis buffer plus 250 mM imidazole. The purified FGFR was analysed by immunoblotting using anti-pentahis (Qiagen) or anti-phosphotyrosine (PY20, Transduction Laboratories) antibodies. The bands were visualised by chemilumiscense and the band density was measured using a GeneGnome apparatus (SynGene).

[9] = system: cerebellar granule neurons (CGN); experiment: Survival of CGN induced to undergo apoptosis by low KCl; settings: individual monomer; low KCl
Procedure: Cerebella granular meurons (CGN) (e and f) from postnatal day 7 rats were grown at a density of 100,000 cells/cm^2 for 7 days on poly-L-lysine coated microtiter plates in the medium containing 40 mM KCl, then the medium was substituted to a 5 mM KCl containing medium supplemented with various concentrations of FGLd.
For the experiments cerebellar tissue was dissected in modified Krebs-Ringer solution kept on ice, and treated as described for the hippocampal neurons above. All cell cultures were incubated at 37° C. in a humidified atmosphere containing 5% CO2.
Primary cultures of CGN were plated at a density of 100,000 cells/cm^2 on poly-L-lysine coated 8-well permanox slides in Neurobasal-A medium (Gibco, BRL) supplemented with 2% (v/v) B27, 0.5% (v/v) glutamax, 100 U/ml penicillin, 100 μg/ml streptomycin and KCl, making the final concentration of KCl in the medium 40 mM. 24 hours after plating, cytosine-β-D-arabinofuranoside (Ara-C; Sigma-Aldrich) was added to a final concentration of 10 μM to avoid proliferation of glial cells, after which the neurons were allowed to differentiate for further six days at 37° C. Apoptotic cell death was induced by washing twice and changing the medium to Basal Medium Eagle (BME; Gibco BRL) supplemented with 1% (v/v) glutamine, 100 U/ml penicillin and 100 μg/ml streptomycin, 3.5 g D-glucose/l and 1% (v/v) sodium pyruvate (Gibco BRL) together with various concentrations of peptide. Thereby the concentration of potassium in the cultures was reduced to 5 mM KCl. Two days after induction of apoptosis, the cells were fixed with 4% formaldehyde and stained with Hoechst 33258 as described for the survival assay employing hippocampal neurons.

T1 sequence (Q04589 22-822): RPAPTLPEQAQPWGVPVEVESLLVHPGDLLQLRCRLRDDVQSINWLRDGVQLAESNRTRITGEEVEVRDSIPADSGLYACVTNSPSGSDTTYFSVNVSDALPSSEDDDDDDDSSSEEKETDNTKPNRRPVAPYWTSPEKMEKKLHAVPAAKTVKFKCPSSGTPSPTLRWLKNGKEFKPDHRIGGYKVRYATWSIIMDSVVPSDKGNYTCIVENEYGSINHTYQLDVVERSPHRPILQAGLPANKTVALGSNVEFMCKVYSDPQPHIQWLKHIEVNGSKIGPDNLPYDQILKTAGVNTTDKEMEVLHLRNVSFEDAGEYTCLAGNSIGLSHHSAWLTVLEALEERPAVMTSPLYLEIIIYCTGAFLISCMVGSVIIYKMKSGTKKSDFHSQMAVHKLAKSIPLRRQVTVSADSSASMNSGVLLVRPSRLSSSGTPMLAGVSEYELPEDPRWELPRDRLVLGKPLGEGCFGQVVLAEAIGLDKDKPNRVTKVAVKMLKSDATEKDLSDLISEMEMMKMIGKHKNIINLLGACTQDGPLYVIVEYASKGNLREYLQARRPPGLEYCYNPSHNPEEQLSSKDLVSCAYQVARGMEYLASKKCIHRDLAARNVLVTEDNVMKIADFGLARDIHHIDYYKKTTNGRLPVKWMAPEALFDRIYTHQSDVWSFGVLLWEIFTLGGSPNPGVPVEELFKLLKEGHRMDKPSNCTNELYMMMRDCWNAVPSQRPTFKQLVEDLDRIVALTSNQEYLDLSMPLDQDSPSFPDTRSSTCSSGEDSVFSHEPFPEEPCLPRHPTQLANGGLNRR

COc1cccc(-c2cc(=O)c3ccccc3o2)c1N [PD98059]
FGLd-induced neurite outgrowth in CGN in presence of inhibitor ([1]; inhibitor above 25 μM, 10 μg/ml FGLd): 75% | inhibition of FGLd-induced survival of CGN ([2]; 12.5 μM inhibitor): inhibited cell survival induced by FGLd to the level of the control cultures | effect on basal neurite outgrowth in CGN [3]: not to affect the basal neurite outgrowth

Cc1c[nH]c(/C=C2\C(=O)Nc3ccccc32)c1CCC(=O)O [SU5402]
PI staining after OGD, pre-incubation with FGFR-inhibitor together with FGLd [4]: the PI staining was similar to that of OGD alone | FGLd-induced neurite outgrowth in CGN in presence of inhibitor ([1]; 80 μM inhibitor, 27 μg/ml FGLd): 35% | effect on neurite outgrowth in control CGN cultures not treated with FGLd ([1]; data not shown): without significant effect on neurite outgrowth | metabolic activity after OGD, FGLd pretreatment with FGFR-inhibitor present [5]: did not diminish the OGD-induced reduction in metabolic activity | inhibition of FGLd-induced survival of CGN ([2]; 20 μM inhibitor): significantly inhibited the survival response to FGLd | inhibition of FGLd-induced survival of CGN ([2]; 40 μM inhibitor): reduced the FGLd-induced survival to the survival rate of the untreated apoptosis-induced control neurons | effect of FGFR-inhibitor on FGLd action on OGD-induced decrease in FM 1-43 release [6]: abrogated the effect of FGLd | effect of FGFR inhibitor on FGLd-increased FM 1-43 destaining (hippocampal neurons [7]): abolished the effect of FGLd | block of EFL-stimulated neuritogenic activity by inhibitor of FGFR1 (hippocampal neurons [8]; with EFL peptide): specifically blocked

NIEVWVEAENALGKKV (Interleukin-6 receptor beta chain [Swiss-Prot: Q00560]: FGFR binding motif) [EFL peptide]
FGFR1 phosphorylation induced by the peptide (rat FGFR1 (IIIC isoform)): > 300% | neurite outgrowth of rat hippocampal neurons (hippocampal neurons [8]; individual monomer): strongly stimulate neurite outgrowth | survival of rat cerebellar neurons [9]: stimulate survival
